Patent US20260174860A1, “HYBRID COMPOUNDS OF SCLAREOL AND DOXORUBICIN, THEIR SYNTHESIS AND APPLICATION” (INSTITUTE FOR BIOLOGICAL RESEARCH "SINISA STANKOVIC" - …, priority 2023, published 2026)

Key:
Experiment in all cases: MTT test of cell viability, 72 h treatment
Format in all cases: cell-based
[1] = test system: NCI-H460 human non-small cell lung carcinoma cell line; conditions: for IC50: MTT, 72 h; for Selectivity Index: ratio IC50 MRC-5 (2,000 cells per well) / IC50 NCI-H460
Description: (§1) The MTT test was used to evaluate the effect of the compounds on cell viability. The test relies on the reduction of tetrazolium salt (MTT) to formazan, which is catalyzed by the mitochondrial enzyme succinate dehydrogenase. The activity of succinate dehydrogenase, which is indicative of mitochondrial respiration, is taken as an indirect measure of the metabolic activity of the cell, and thus its viability. The MTT-formazan produced is a purple-colored product, whose absorbance is measured at a wavelength of 570 nm. • a) To determine the inhibition of cell growth by SC, different cell lines were exposed to increasing concentrations of SC (5, 10, 25, 50, and 100 μM). The cells were seeded in 96-well microtiter plates at a density of 2,000 cells per well for NCI-H460, NCI-H460/R, DLD1 and DLD1-TxR, and 4,000 cells per well for MRC-5, U87, U87-TxR, and U251 in 100 μL of the appropriate medium. Control cells that received no treatment were also seeded at the same time. After 24 h for adaptation, the cells were treated with various concentrations of SC. After 72 h of treatment, 0.2 mg/ml MTT was added to each well in the appropriate cell culture medium. After 4 h of incubation at 37° C. with 5% CO2, the medium was removed, and 100 μL of DMSO were added to each well, to dissolve the formazan. The absorbance of the samples was measured at 570 nm using a Multiskan Sky Microplate spectrophotometer (ThermoFisher Scientific, USA). The results were analyzed using GraphPad Prism 8.0.2. software, and the IC50 values were determined by non-linear regression. • b) To test the interaction between SC and DOX in terms of cytotoxicity in different cell lines, cells were seeded in 96-well microtiter plates at a density of 2,000 cells per well for NCI-H460, NCI-H460/R, DLD1 and DLD1-TxR, and 4,000 cells per well for MRC-5, U87, U87-TxR, and U251 in 100 μl of the appropriate medium. SC (10 and 20 μM) was combined with increasing concentrations of DOX (20, 50, 100, 200, and 500 nM). The cells were treated with the simultaneous combinations for 72 h. After this period, 0.2 mg/ml MTT was added to each well, followed by 4 hours of incubation at 37° C. with 5% CO2. The medium was then removed, and DMSO was added to each well to dissolve the formazan.
(§2) The analysis was carried out using GraphPad Prism software version 8.0.2 to determine the nature of the interaction, namely synergistic, antagonistic, or additive, between compounds. This was done using the computer software CalcuSyn, which is based on the combination index method. The method takes into account the concentration of compounds, the individual effect of each compound, as well as the effect of two compounds in combination. The values of the combination indices (CI) describe the nature of the interaction: Cl<0.9 indicates synergism, Cl>1.1 indicates antagonism, and Cl=0.9-1.1 indicates an additive effect. • c) To compare the resistance and selectivity profiles among SC, DOX, CON1, and CON2, human glioblastoma cell lines U87, U87-TxR, and MRC-5 were seeded at a density of 4,000 cells per well in 100 μL of the appropriate medium. In contrast, NCI-H460, NCI-H460/R, and MRC-5 were seeded at a density of 2,000 cells per well in 100 μL of the proper medium. The effect of SC derivatives LIG1 and LIG2 was also examined. The range of concentrations differed among the cell lines and the compounds. For LIG1 and LIG2, the range of concentrations for all cell lines was 50, 100, 200, 300, and 400 μM, while the same range was used for the MRC-5 in the case of SC, CON1, and CON2. DOX concentrations ranged 0.1, 0.25, 0.5, 1, and 2.5 μM for U87 and NCI-H460, and 0.25, 0.5, 1, 2.5, and 5 μM for U87-TxR, NCI-H460/R, and MRC-5. […] concentrations used for SC, CON1, and CON2 treatments varied in the range 1, 2.5, 5, 10, 25, 50, and 100 μM. The treatment lasted 72 h. After the treatment period, 0.2 mg/ml MTT in the appropriate cell culture medium was added to each well. […]

[2] = test system: U87 human glioblastoma cell line; conditions: for IC50: MTT, 72 h; for Selectivity Index: ratio IC50 MRC-5 (4,000 cells per well) / IC50 U87
Description: as §1, §2

[3] = test system: MRC-5 human lung fibroblast cell line
Description: as §1
(§3) The absorbance of the samples was measured at 570 nm using a Multiskan Sky Microplate spectrophotometer.
as §2, with “h.” for “h. After the treatment period, 0.2 mg/ml MTT in the appropriate cell culture medium was added to each well.”

[4] = test system: NCI-H460/R resistant human non-small cell lung carcinoma cell line; conditions: for IC50: MTT, 72 h, MDR line; for Relative Resistance: ratio IC50 NCI-H460/R / IC50 NCI-H460
Description: as §1, §3
as §2, with “h.” for “h. After the treatment period, 0.2 mg/ml MTT in the appropriate cell culture medium was added to each well.”

[5] = test system: U87-TxR resistant human glioblastoma cell line; conditions: for IC50: MTT, 72 h, MDR line; for Relative Resistance: ratio IC50 U87-TxR / IC50 U87
Description: as §1, §3
as §2, with “h.” for “h. After the treatment period, 0.2 mg/ml MTT in the appropriate cell culture medium was added to each well.”

[6] = Homo sapiens, NCI-H460, DOX only

For `COc1cccc2c1C(=O)c1c(O)c3c(c(O)c1C2=O)C[C@@](O)(C(=O)CO)C[C@@H]3O[C@H]1C[C@H](N)[C@H](O)[C@H](C)O1` [DOX, doxorubicin], the IC50 [1, 6] was 0.128 µM, the “Selectivity Index” value [1] was 4.6 and the IC50 ([2]; Homo sapiens, DOX only) was 0.1 µM. For the same compound, the “Selectivity Index” value [2] was 2.9, the IC50 ([3]; Homo sapiens, MRC5, 72 h, 2,000 cells per well (non-small cell carcinoma experiments), DOX only) was 0.588 µM and the IC50 ([3]; Homo sapiens, MRC5, 72 h, 4,000 cells per well (glioblastoma experiments), DOX only) was 0.295 µM. The IC50 [4, 6] was 2.5 µM, the “Relative Resistance” value [4] was 19.6 and the IC50 ([5]; Homo sapiens, U87-TxR, DOX only) was 1.32 µM. The “Relative Resistance” value [5] was 13.2.
`C=C[C@](C)(O)CC[C@@H]1[C@@]2(C)CCCC(C)(C)[C@@H]2CC[C@@]1(C)O` [SC, sclareol] was tested, and the IC50 ([1]; Homo sapiens, NCI-H460) was 40.3 µM, the “Selectivity Index” value [1] was 1.6 and the IC50 ([2]; Homo sapiens) was 51.6 µM. The “Selectivity Index” value [2] was 1.5, the IC50 ([3]; Homo sapiens, MRC5, 72 h, 2,000 cells per well (non-small cell carcinoma experiments)) was 64.1 µM and the IC50 ([3]; Homo sapiens, MRC5, 72 h, 4,000 cells per well (glioblastoma experiments)) was 75.9 µM. The IC50 ([4]; Homo sapiens, NCI-H460) was 47.4 µM, the “Relative Resistance” value [4] was 1.2 and the IC50 ([5]; Homo sapiens, U87-TxR) was 39.2 µM. The “Relative Resistance” value [5] was 0.8.
“N1-((25,3S,4S,6R)-3-hydroxy-2-methyl-6-(((1S,3S)-3,5,12-trihydroxy-3-(2-hydroxyacetyl)-10-methoxy-6,11-dioxo-1,2,3,4,6,11-hexahydrotetracen-1-yl)oxy)tetrahydro-2H-pyran-4-yl)-N4-(3-((4-((R,E)-3-hydroxy-5-((1R,2R,4aS,8aS)-2-hydroxy-2,5,5,8a-tetramethyldecahydronaphthalen-1-yl)-3-methylpent-1-en-1-yl)benzyl)amino)propyl) succinamide [CON1]” was tested, and the IC50 [1] was 9.8 µM, the “Selectivity Index” value [1] was 7.4 and the IC50 [2] was 8.8 µM. The “Selectivity Index” value [2] was 15.6, the IC50 ([3]; 2,000 cells per well (non-small cell carcinoma experiments)) was 72.6 µM and the IC50 ([3]; 4,000 cells per well (glioblastoma experiments)) was 137 µM. For the same compound, the IC50 [4] was 38.4 µM, the “Relative Resistance” value [4] was 3.9 and the IC50 [5] was 28.7 µM. For the same compound, the “Relative Resistance” value [5] was 3.3.
